Tests used:
[1] = test system: IL-1α secretion, human epidermal equivalents (EPI-200); test: IL-1α levels 24 hr post-exposure, retinoids, ELISA (Example 2); format: cell-based; conditions: 5% SDS, Positive Control
Description: Retinoids were dissolved in one of two vehicles: […] […] A Bio-Tek microplate reader and KC4 software were used for sample analysis.

[2] = test system: IL-1α secretion, human epidermal equivalents (EPI-200); test: IL-1α secretion upon chymotrypsin exposure (Example 5, diaper rash irritation); format: cell-based
Description: (§1) Modified chitosan (1%) alone was also included.
(§2) IL-1α secretion was analyzed using the Human IL-1α ELISA Duo Set (R&D Systems, cat# DY200, Lot 1353857). A Bio-Tek microplate reader and KC4 software were used for sample analysis.
(§3) The method is described in Example 1. Test articles included Chymotrypsin (0.005, 0.01 and 0.02%), with and without modified chitosan (1%). Chymotrypsin is the major fecal irritant enzyme that initiates diaper rash.

[3] = test system: three-dimensional human epidermal equivalents (EPI-200); test: In Vitro Skin Irritation Test, MTT tissue viability, retinoids (Example 2); format: cell-based; conditions: positive control irritant (5% SDS)
Description: Retinoids were dissolved in one of two vehicles: V1 (50% ethanol, 20% glycerin, 0.1% BHT, in PBS) or V2 (50% ethanol, 0.1% BHT, in PBS).

[4] = test system: three-dimensional human epidermal equivalents (EPI-200); test: In Vitro Skin Irritation Test, MTT tissue viability upon SDS exposure (Example 1); conditions: for mean of viability [%]: 60 minute exposure, MTT after 42 hr
Description: An In Vitro Skin Irritation Test was performed according to OCED guidelines. Irritant materials are identified by their ability to decrease cell viability below a defined threshold level of 50%. Moreover, if the cytotoxic effect is absent or weak, a quantifiable amount of inflammatory mediators (e.g. IL-1α) is released by the epidermis and may be used in a tiered approach to increase the sensitivity of the test.
Test materials (30 μl) were topically applied onto three-dimensional human epidermal equivalents (EPI-200 from MatTek, Ashland, Mass.), n=3 tissues per treatment group. Test materials included a positive control irritant (5% sodium dodecyl sulfate, SDS), and a negative control (Phosphate Buffered Saline, PBS), and aqueous SDS solutions of 0.2, 0.4 and 0.6%, with or without the addition of modified chitosan (1%). Modified chitosan (1%) alone was also included.
After a 60 minute exposure, the tissues were rinsed with PBS and were transferred to fresh medium. After 24 hours, media was collected for IL-1α analysis and tissues were transferred to fresh media for an additional 18 hr to allow the toxic effect of irritant chemicals to develop. After the 42 hr post-exposure equilibration, media was again collected and tissue viability was determined using an MTT assay.

[5] = test system: IL-1α secretion, human epidermal equivalents (EPI-200); test: IL-1α secretion upon SDS exposure, ELISA (Example 1); format: cell-based; conditions: for IL-1α secretion, Avg: media at 24 hours
Description: as §2

[6] = test system: Epidermal equivalents (EPI-200); test: Visual observation of tissues after four days of daily retinol treatment (Example 3); format: cell-based; conditions: 1% retinol in vehicle, daily for four days
Description: Epidermal equivalents (EPI-200 from MatTek, Ashland, Mass.) were topically treated daily, for four days, with 30 μl of each test article, n=3 tissues per treatment group. Test articles were removed from the apical surface of the tissue daily by washing with PBS prior to reapplication of test article. Tissues were fed daily with 0.9 mL EPI-100-NMM. Tissues remained untreated, or treated with a vehicle (45% ethanol, 0.1% BHT, in PBS), without and with increasing concentrations of retinol (0.01-1%), with or without the addition of the modified chitosan (1%).

[7] = test system: IL-1α secretion, epidermal equivalents (EPI-200); test: IL-1α levels at 96 hr, daily retinol treatment, ELISA (Example 4); format: cell-based, human
Description: Epidermal equivalents (EPI-200 from MatTek, Ashland, Mass.) were topically treated daily, for four days, with 30 μl of each test article, n=3 tissues per treatment group. n=3 tissues were left untreated. Test articles were removed from the apical surface of the tissue daily by washing with PBS prior to reapplication of test article. […] Media was collected at 96 hour post treatment and IL-1α concentration was analyzed using the Human IL-1α ELISA Duo Set (R&D Systems, cat# DY200, Lot 1353857). A Bio-Tek microplate reader and KC4 software were used for sample analysis.

[8] = test system: three-dimensional human epidermal equivalents (EPI-200); test: Cell death upon chymotrypsin exposure (Example 5); format: cell-based; conditions: chymotrypsin 0.005-0.02%, one hour exposure
From the text: as §1, §3

[9] = Untreated + Chymotrypsin (0.005%)
[10] = Untreated + Chymotrypsin (0.01%)
[11] = Untreated + Chymotrypsin (0.02%)

Molecule: CCCCCCCCCCCCOS(=O)(=O)[O-].[Na+] [SDS, sodium dodecyl sulfate]
- IL-1α levels 24 hr post-exposure, AVG [1]: >524.6
- IL-1α secretion, AVG ([2]; Positive Control (PC, 5% SDS)): 394.114
- IL-1α secretion, tissue 1 ([2]; Positive Control (PC, 5% SDS)): 459.595
- IL-1α secretion, tissue 2 ([2]; Positive Control (PC, 5% SDS)): 384.839
- IL-1α secretion, tissue 3 ([2]; Positive Control (PC, 5% SDS)): 337.908
- viability [3]: less than 10%
- mean of viability [%] ([4]; 0.2% SDS): 110.0%
- mean of viability [%] ([4]; 0.4% SDS): 106.3%
- tissues dead ([4]; 0.6% SDS): ~90%
- mean of viability [%] ([4]; 0.6% SDS): 13.8%
- mean of viability [%] ([4]; 5% SDS (PC)): 11.1%
- IL-1α secretion, Avg ([5]; 0.2% SDS): 151.98
- IL-1α secretion, Avg ([5]; 0.4% SDS): 334.95
- IL-1α secretion, Avg ([5]; 0.6% SDS): 524.61
- IL-1α secretion, Avg ([5]; PC (5% SDS)): 425.23
- IL-1α secretion ([5]; SDS exposure 0.2-0.6%): dose-dependent increase in IL-1α secretion

Molecule: CC1=C(/C=C/C(C)=C/C=C/C(C)=C/CO)C(C)(C)CCC1 [retinol]
- visual observations at 96 hour post treatment [6]: partially disintegrated
- IL-1α levels at 96 hr post-exposure, AVG ([7]; Vehicle + retinol (0.01%)): 104.90
- IL-1α levels at 96 hr post-exposure, Tissue 1 ([7]; Vehicle + retinol (0.01%)): 124.24
- IL-1α levels at 96 hr post-exposure, Tissue 2 ([7]; Vehicle + retinol (0.01%)): 108.54
- IL-1α levels at 96 hr post-exposure, Tissue 3 ([7]; Vehicle + retinol (0.01%)): 81.94
- IL-1α levels at 96 hr post-exposure, AVG ([7]; Vehicle + retinol (0.1%)): 240.68
- IL-1α levels at 96 hr post-exposure, Tissue 1 ([7]; Vehicle + retinol (0.1%)): 351.17
- IL-1α levels at 96 hr post-exposure, Tissue 2 ([7]; Vehicle + retinol (0.1%)): 108.86
- IL-1α levels at 96 hr post-exposure, Tissue 3 ([7]; Vehicle + retinol (0.1%)): 262.00
- IL-1α levels at 96 hr post-exposure, AVG ([7]; Vehicle + retinol (1%)): 1020.46
- IL-1α levels at 96 hr post-exposure, Tissue 1 ([7]; Vehicle + retinol (1%)): 885.52
- IL-1α levels at 96 hr post-exposure, Tissue 2 ([7]; Vehicle + retinol (1%)): 1097.75
- IL-1α levels at 96 hr post-exposure, Tissue 3 ([7]; Vehicle + retinol (1%)): 1078.11
- skin irritation by IL-1α secretion biomarker ([7]; retinol 0.01-1% in vehicle): induces skin irritation in a dose-responsive manner

Molecule: Chymotrypsin
- IL-1α secretion, AVG [2, 9]: 65.279
- IL-1α secretion, tissue 1 [2, 9]: 47.295
- IL-1α secretion, tissue 2 [2, 9]: 74.241
- IL-1α secretion, tissue 3 [2, 9]: 74.302
- IL-1α secretion, AVG [2, 10]: 66.405
- IL-1α secretion, tissue 1 [2, 10]: 58.421
- IL-1α secretion, tissue 2 [2, 10]: 53.293
- IL-1α secretion, tissue 3 [2, 10]: 87.502
- IL-1α secretion, AVG [2, 11]: 166.821
- IL-1α secretion, tissue 1 [2, 11]: 67.307
- IL-1α secretion, tissue 2 [2, 11]: 353.378
- IL-1α secretion, tissue 3 [2, 11]: 79.779
- IL-1α secretion ([2]; chymotrypsin exposure 0.005-0.02%): dose-dependent increase in IL-1α secretion
- cell death [8]: did not induce cell death

From patent US11123362B2, “Compositions and methods to affect skin irritation” (ALUMEND, LLC, priority 2015, dated 2021)
